One assay concerns the target TrkA (Homo sapiens, UniProt P04629). Description: Table of THPI-244 analogs: TrkA increase.
Assay [1] has as its system soluble APPα, soluble APPβ, Aβ. Description: APP processing blots after SAHA, 7WD10 cells. The assay is classed as cell-based. On the procedure: (§1) Western blot sAPPα release assay. 7WD10 cells were grown in 6-well plates and treated with test compounds and SAHA (vorinostat) at several concentrations in duplicate wells. After 24 h of drug exposure, the conditioned media (CM) was collected, centrifuged to remove cell debris and subjected to SDS-PAGE electrophoresis. sAPPα (6E10, mouse IgG from IBL America ltd) was detected using indicated antibody. To detect APP-FL holoprotein and C-terminal fragments (CTFs, CT15 antibody), the cells were lysed using lysis buffer (1% NP40) with complete protease inhibitor mix (Sigma) supplemented with sodium vanadate and microcystine. Samples were subjected to SDS-PAGE, transferred and immunoblotted with indicated antibodies and detected by enhanced chemiluminescence method. Quantification of Western blot signals was done using ImageJ software.
We utilized a commercially available AlphaLISA detection kit to develop an HTS assay for identification of compounds that increase sAPPα production in CHO cells stably expressing APP751 (7WD10 cells) (FIG. 2.1B). There are several cell lines that have been used extensively in Alzheimer's disease research. […] We have analyzed both 7WD10 and NT2 cells for expression of the hallmark proteins of Alzheimer's disease: soluble APPα, soluble APPβ, Arβ, and membrane-bound full length APP (APP-FL). […]

Assay [2] has as its system soluble APPα, soluble APPβ, Aβ. Description: APP processing blots after SAHA, NT2 cells. The assay is classed as cell-based, human. The text has this: We utilized a commercially available AlphaLISA detection kit to develop an HTS assay for identification of compounds that increase sAPPα production in CHO cells stably expressing APP751 (7WD10 cells) (FIG. 2.1B). There are several cell lines that have been used extensively in Alzheimer's disease research. For example, NT2 cells are highly used in AD basic and drug discovery research because they are derived from a human embryonal carcinoma cell line and they can be differentiated into post-mitotic neuron-like cells that develop functional dendrites and axons resembling primary neurons of the human brain [39]. NT2 cells also synthesize amyloid precursor protein important in Alzheimer's disease. However, the rate of growth of NT2 cells is much slower than rate of growth of 7WD10s cells, which makes them less HTS-amenable. We have analyzed both 7WD10 and NT2 cells for expression of the hallmark proteins of Alzheimer's disease: soluble APPα, soluble APPβ, Arβ, and membrane-bound full length APP (APP-FL). […] Since it was shown that broad HDAC inhibition results in a decrease of AR and an increase of soluble APPα [41] we tested both cell lines for the effect of application of SAHA (suberoylanilide hydroxamic acid or vorinostat), a pan-HDAC inhibitor [42].

Assay [3] relates to sAPPα. Put plainly: sAPPα ELISA, NT2 cells stably expressing APP751. Particulars: 24 h. Type of assay: cell-based, human. How it is done: (§2) (5). To confirm the effect of THPI-244 on sAPPα levels in a neuronal cell line and by a tertiary assay, we exposed human Neuron-committed Teratocarcinoma cell line (NT2) stably expressing human APP751 to different concentrations of THPI-244 for 24 h and compared with that of Bryostatin, a classical activator of PKC known to stimulate sAPPα release. […] Levels of sAPPα were measured by ELISA using commercially available kit (cat #27734, IBL-America, Minneapolis, Minn., USA). […] Similar biphasic effect of Bryostatin was confirmed for Aβ42 also, measured again in NT2 stable cells by ELISA (cat #KHB3441, Life Technologies, Grand Island, N.Y., USA). Consistent with sAPPα, THPI-244 decreased Aβ42 levels dose-dependently starting from 50 nM (28%, p<0.05) to 2000 nM (64%, p<0.001) (n=4 independent experiments) (FIG. 1.7). Thus THPI-244 increased non-amyloidogenic processing of APP in NT2 cells.
(An ELISA detects its analyte on a solid surface through an enzyme-linked reagent.)

Another assay relates to Aβ42. Put plainly: Aβ42 ELISA, NT2 stable cells. Type of assay: cell-based, human. On the procedure: as §2
Assay [4] concerns sAPPα. Description: sAPPα ELISA, fibroblasts derived from AD patients. Type of assay: cell-based, human. Particulars: 24 h. How it is done: (1). […] Therefore, we first used fibroblasts derived from AD patients (AG06263C, Coriell Cell repository, supported by NINDS/NIH) and exposed to THPI-244 for 24 h and measured sAPPα release by ELISA as done above for NT2 cells. […] We also confirmed dose-dependent effect of THPI-244 on sAPPα levels in human primary neurons transiently transfected with APP751 with Swedish mutation which is trafficked differently from WT APP and releases more sAPPα. Human neurons were grown on specially coated glass coverslips (cat #GG-18-PDL, NeuVitro, Germany). We could reproducibly achieve nearly 30% transfection efficiency using a nanoparticle based transfection reagent called Neuromag (cat #NM150299, OZ Biosciences, France).

Assay [5] deals with sAPPα released from 7WD10 cells (CHO cells stably expressing APP751). Put plainly: AlphaLISA sAPPα release assay (pilot HTS). Type of assay: cell-based. On the procedure: (1). The pilot screen was performed using five 384 well plates. […] FDA approved oncology set was screened at 10 μM final assay concentration, while thiazole derivatives were screened at 5 μM. Seven hits from thiazole derivatives were identified using Ave+3SD rule (45) as a nominal cutoff for hit determination (FIG. 1.1 (bottom)). The hits represented a novel piperazine thiazole chemotype (FIG. 1.2).
Pilot screen of AlphaLISA sAPPα release assay. 8 μL of assay media (DMEM supplemented with 10% FBS and 1× Penicillin/Streptomycin) containing 20,000 cells were added to all wells of the assay plate, except column 1 where only media was added. Plates were incubated for 4 h at 37° C., 5% CO2, 95% RH after which 80 nL of test compounds in DMSO or DMSO alone were added to respective wells using a pin tool device (VP Scientific, San Diego). After 24 h of incubation at 37° C., 5% CO2, 95% RH, sAPPα AlphaLISA beads were added in 10 μL of buffer, equilibrated for 1 h, and AlphaLISA signal was measured using a Biotek H4 Synergy microplate reader (Biotek Inc). Three parameters were calculated on a per-plate basis: (a) the signal-to-background ratio (S/B); (b) the coefficient for variation [CV; CV=(standard deviation/mean)×100)] for all compound test wells; and (c) the Z′-factor [31]. Nominally active compounds from the pilot screen were determined using mean plus 3 times the standard deviation (Mean+3SD) was used as the cut-off.
In the absence of known pharmacological agents capable of inducing an increase of sAPPα release, we tested a small molecule (FIG. 2.4A insert, compound 1 in [2]) shown to decrease Aβ release. It was shown that decrease of Aβ release could be accompanied by the increase of soluble APPα, which has a neuroprotective effect. Compound 1 was tested using 20,000 cells/well in the range of 1.2-100 μM using 3-fold serial dilutions and 24 h incubation as an assay endpoint. Increase of sAPPα release was observed only in wells where 100 μM of compound 1 was added either with or without FBS (FIG. 2.4A). Viability of cells was also tested in the presence of 1.2-100 μM of compound 1 to ascertain that the increase of sAPPα release is not due to excessive cell death. Consistent with the above described results, cells were less viable in the absence of FBS. In the presence of 1.2-33 μM of compound 1, cells were approximately 10% less viable than untreated control either with or without FBS (FIG. 2.4B).
To evaluate the ability of the assay to identify compounds that increase the release of sAPPα a pilot screen was conducted using FDA approved oncology set (n=101) and TPIMS heterocycles library (n=700). The pilot screen was performed using five 384 well plates. […]
In general terms: In Alpha technology, singlet oxygen from a donor bead excites a nearby acceptor bead.

In assay [6] the test system is sAPPα in supernatants of 7WD10 cells. Put plainly: Western blot sAPPα release assay, 7WD10 cells. The assay is classed as cell-based. Particulars: 10 nM, 7WD10 supernatant. How it is done: (2). To ascertain that hits identified as a result of AlphaLISA assay are not due to artifacts of the detection system, the sAPPα levels were measured by Western blots as a secondary assay downstream of primary HTS to confirm hits or discard artifacts of the AlphaLISA assay. The assay was performed using a range of concentrations of hit compounds (10-5,000 nM). A hit compound named thiazole piperazine #244 (THPI-244) and THPI-326 induced dose-dependent increase of sAPPα in supernatants of 7WD10 cells (FIG. 1.3). […] Since compound THPI-244 increased sAPPα levels more than THPI-326, we focused on THPI-244 for further validation.
as §1, with “To detect APP-FL holoprotein and C-terminal fragments (CTFs, CT15 antibody), the cells were lysed using lysis buffer (1% NP40) with complete protease inhibitor mix (Sigma) supplemented with sodium vanadate and microcystine.” left out

The test system of another assay is human sAPPα. Put plainly: sAPPα release ELISA, 7WD10 cells. The assay is classed as cell-based. Particulars: 24 h. How it is done: Starting from p-methylbenzhydrylamine hydrochloride (MBHA.HCl) resin; we developed different approaches toward the diversity oriented solid-phase parallel synthesis of different aminothiazole compounds 1-6 (Scheme 1) (Micheals, H A et al., 2014, ACS Comb. Sci. 16, 1-4; Nefzi, A et al., 2010, J. Org. Chem. 75, 7939-7941). 575 thiazole compounds were synthesized and were tested for sAPPα increasing activity using CHO cells stably expressing APP751wt. For initial screenings we used a cell-based human sAPPα ELISA kit (cat #27734, IBL Co., ltd, Japan) following instructions from the manufacturer. The method involves sandwich ELISA and use of two specific antibodies and tetra methyl benzidine as a coloring agent. […]
sAPPα and Aβ40 release ELISA assay. […] The principle of the method is based on the use of tetra methyl benzidine (TMB) as a chromogen and the strength of the generated color is proportional to the quantities of human sAPPα. […] Plates were incubated with chromogen solution for 30 minutes, and read at 450 nm after adding stop solution. Levels of Aβ40 in the CM treated with different concentrations of compound 1 as detailed above were measured by sandwich ELISA exactly as described previously. Aβ40 was captured with Ab9 antibody (epitope, 1-16 of Aβ40) and detected with horseradish peroxidase-conjugated Ab13.1.1 antibody (epitope, 35-40 of Aβ40).

The structures appear in SMILES notation.

Sequence of TrkA (P04629 33-796, species assumed): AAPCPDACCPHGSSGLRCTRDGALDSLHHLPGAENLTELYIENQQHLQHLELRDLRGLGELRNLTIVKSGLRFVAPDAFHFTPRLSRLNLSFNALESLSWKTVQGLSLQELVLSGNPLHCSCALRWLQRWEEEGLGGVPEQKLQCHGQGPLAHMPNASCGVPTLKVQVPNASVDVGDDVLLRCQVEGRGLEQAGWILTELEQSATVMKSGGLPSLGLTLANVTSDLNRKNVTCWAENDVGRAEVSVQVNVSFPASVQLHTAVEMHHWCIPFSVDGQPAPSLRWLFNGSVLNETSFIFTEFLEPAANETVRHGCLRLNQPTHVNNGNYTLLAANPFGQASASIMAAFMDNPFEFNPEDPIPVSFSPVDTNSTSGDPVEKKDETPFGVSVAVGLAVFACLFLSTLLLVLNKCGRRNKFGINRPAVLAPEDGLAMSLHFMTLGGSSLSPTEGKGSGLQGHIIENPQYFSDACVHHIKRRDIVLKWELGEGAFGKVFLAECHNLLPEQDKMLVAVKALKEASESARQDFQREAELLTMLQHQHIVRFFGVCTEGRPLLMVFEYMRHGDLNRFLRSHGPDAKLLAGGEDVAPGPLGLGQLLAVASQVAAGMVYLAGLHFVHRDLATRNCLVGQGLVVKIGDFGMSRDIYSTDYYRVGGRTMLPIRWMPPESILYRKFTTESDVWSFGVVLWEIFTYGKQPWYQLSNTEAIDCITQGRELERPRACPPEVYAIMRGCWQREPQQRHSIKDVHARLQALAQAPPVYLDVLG

As to `c1ccc(CCNc2nc(CN3CCOCC3)cs2)cc1` [TPI-2336-99], on TrkA, the “% TrkA ⬆” value came to 51%.
For the compound `Cc1cnc(C(=O)N[C@H](CNc2nc(CN3CCNCC3)cs2)c2ccccc2)cn1` [TPI-2336-55], at TrkA, the “% TrkA ⬆” value was determined as 69%.
As to `O=C(CCCCCCC(=O)Nc1ccccc1)NO` [SAHA, suberoylanilide hydroxamic acid], the “change of Aβ” value in assay [1] and in assay [2] was “decrease” in each case.
For the compound `CCC/C=C/C=C/C(=O)O[C@H]1/C(=C/C(=O)OC)C[C@H]2C[C@H]([C@@H](C)O)OC(=O)C[C@H](O)C[C@@H]3C[C@H](OC(C)=O)C(C)(C)[C@](O)(C[C@@H]4C/C(=C/C(=O)OC)C[C@H](/C=C/C(C)(C)[C@]1(O)O2)O4)O3` [Bryostatin, reference compound], in the assay on sAPPα [3], the “effect on sAPPα release” value is “increased sAPPα at low nM concentrations, but then decreased levels dose-dependently” and the “lowest concentration with significant increase of sAPPα” value was 10 nM. Further, the “lowest concentration with significant decrease of Aβ42” value with Aβ42 amounted to 10 nM. In the assay with sAPPα [4], the “lowest concentration with significant increase of sAPPα” value was 10 nM.
Consider `CCC(C)C(=O)N1CCN(Cc2csc(NC[C@H](Cc3ccc(O)cc3)NC(=O)Cc3ccccc3)n2)CC1` (stereo partly drawn) [THPI-326], for which the “increase of Alpha signal (sAPPα release)” value in assay [5] (5 μM, 7WD10 cells, 24 h) is on record as about 2 fold. Besides, the “increase of sAPPα over untreated control cells (Western blot)” value in assay [6] was determined as 2 fold.
Turning to `c1ccc(CCNc2nc(CN3CCCCC3)cs2)cc1` [TPI-2336-100], the “% TrkA ⬆” value at TrkA came out at 54%.
Turning to `O=C(NCCSCc1cccc(Cl)c1)c1c(Cl)cccc1Cl` [compound 1, 2,6-dichloro-N-{2-[(3-chlorobenzyl)thio]ethyl}benzamide, reference compound], the “increase of AlphaLISA signal” value in assay [5] (100 μM compound 1) amounted to 2 fold. Besides, the “concentration at which increase of sAPPα release was observed” value in assay [5] (range 1.2-100 μM, 24 h, with or without FBS) amounted to 100 µM. Moreover, the “increase of sAPPα over untreated control cells (ELISA)” value in the assay on human sAPPα (100 μM) was found to be 2 fold. In addition, the “maximal increase of sAPPα (ELISA)” value in the assay with human sAPPα (150 μM) was 3 fold.

The record behind these values is US9994536B2, “Compounds and methods of treating neurological disorders” (TORREY PINES INSTITUTE FOR MOLECULAR STUDIES, priority 2014, dated 2018).
